Data reported in patent publication US9694016B2 (Novartis AG, priority 2013, dated 2017).
pIC50: −log10 of the molar value.

The molecules below were run against b-Raf (V600E) (Homo sapiens (Human), UniProt P15056, V600E). Details: read-out: b-Raf IC-50; AlphaScreen, 60 min pre-incubation, 3 hours reaction.
Chain of b-Raf (V600E) (P15056 whole entry V600E): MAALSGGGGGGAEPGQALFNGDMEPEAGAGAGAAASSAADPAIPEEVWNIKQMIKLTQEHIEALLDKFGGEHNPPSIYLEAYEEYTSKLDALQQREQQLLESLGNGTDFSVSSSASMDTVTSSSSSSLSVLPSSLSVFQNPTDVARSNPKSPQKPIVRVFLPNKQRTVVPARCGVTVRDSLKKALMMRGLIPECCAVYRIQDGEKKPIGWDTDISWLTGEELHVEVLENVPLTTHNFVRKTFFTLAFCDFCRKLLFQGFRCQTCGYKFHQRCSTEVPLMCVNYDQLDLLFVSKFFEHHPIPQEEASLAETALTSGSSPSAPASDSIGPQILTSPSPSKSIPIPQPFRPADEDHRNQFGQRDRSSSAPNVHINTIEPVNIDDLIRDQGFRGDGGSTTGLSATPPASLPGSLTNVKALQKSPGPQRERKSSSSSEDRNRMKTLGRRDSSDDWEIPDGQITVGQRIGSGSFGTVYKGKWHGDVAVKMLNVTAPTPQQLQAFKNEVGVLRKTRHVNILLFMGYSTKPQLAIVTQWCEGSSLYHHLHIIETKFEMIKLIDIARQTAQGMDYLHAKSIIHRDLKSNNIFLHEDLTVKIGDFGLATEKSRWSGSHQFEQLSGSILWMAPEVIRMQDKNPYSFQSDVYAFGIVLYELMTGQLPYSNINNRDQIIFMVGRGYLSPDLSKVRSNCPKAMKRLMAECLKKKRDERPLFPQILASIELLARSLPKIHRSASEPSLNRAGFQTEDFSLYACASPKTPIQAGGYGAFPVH

pIC50 | Structure (SMILES)
7.80 | Cc1ccc(NC(=O)c2ccnc(C(C)(C)C#N)c2)cc1-c1cc(N2CCOC[C@H]2C)c(=O)n(C)n1 [Example 672, (R)-2-(2-cyanopropan-2-yl)-N-(4-methyl-3-(1-methyl-5-(3-methylmorpholino)-6-oxo-1,6-dihydropyridazin-3-yl)phenyl)isonicotinamide]
8.66 | CCNc1nc(-c2cc(C(=O)Nc3cccc(C(C)(C)C#N)c3)ccc2C)cc(N2CCOCC2)n1 [Example 732, N-(3-(2-cyanopropan-2-yl)phenyl)-3-(2-(ethylamino)-6-morpholinopyrimidin-4-yl)-4-methylbenzamide]
9.15 | Cc1ccc(NC(=O)c2ccnc(C(C)(F)F)c2)cc1-c1cc(N2CCOCC2)c(OC(C)C)nn1 [Example 592, 2-(1,1-difluoroethyl)-N-(3-(6-isopropoxy-5-morpholinopyridazin-3-yl)-4-methylphenyl)isonicotinamide]
7.75 | CCNc1nc(-c2cc(NC(=O)c3ccnc(C4COC4)c3)cnc2C)cc(N2CCOCC2)n1 [Example 729, N-(5-(2-(ethylamino)-6-morpholinopyrimidin-4-yl)-6-methylpyridin-3-yl)-2-(oxetan-3-yl)isonicotinamide]
8.19 | Cc1ncc(NC(=O)c2ccnc(C(C)(F)F)c2)cc1-c1cc(N2CCOCC2)c(=O)n(C)n1 [Example 678, 2-(1,1-difluoroethyl)-N-(6-methyl-5-(1-methyl-5-morpholino-6-oxo-1,6-dihydropyridazin-3-yl)pyridin-3-yl)isonicotinamide]
8.72 | Cc1ncc(NC(=O)c2ccnc(C(F)F)c2)cc1-c1cc(N2CCOCC2)n2nccc2n1 [Example 803, 2-(difluoromethyl)-N-(6-methyl-5-(7-morpholinopyrazolo[1,5-a]pyrimidin-5-yl)pyridin-3-yl)isonicotinamide]
7.69 | CCNc1nc(-c2cc(NC(=O)c3ccnc(C(C)(C)C)c3)cnc2C)cc(N2CCOCC2)n1 [Example 724, 2-(tert-butyl)-N-(5-(2-(ethylamino)-6-morpholinopyrimidin-4-yl)-6-methylpyridin-3-yl)isonicotinamide]
8.12 | Cc1ccc(NC(=O)c2ccnc(C(F)F)c2)cc1-c1cc(N2CCOCC2)nc(N2C(=O)OC[C@@H]2C)n1 [Example 785, (S)-2-(difluoromethyl)-N-(4-methyl-3-(2-(4-methyl-2-oxooxazolidin-3-yl)-6-morpholinopyrimidin-4-yl)phenyl)isonicotinamide]
8.92 | CCNc1nc(-c2cc(NC(=O)c3ccnc(C(C)C)c3)ccc2C)cc(N2CCOCC2)n1 [Example 700, N-(3-(2-(ethylamino)-6-morpholinopyrimidin-4-yl)-4-methylphenyl)-2-isopropylisonicotinamide]
7.12 | Cc1ncc(NC(=O)c2ccnc(C(C)(F)F)c2)cc1-c1cc(N2CCO[C@@H](CO)C2)n(C)c(=O)c1 [Example 529, (R)-2-(1,1-difluoroethyl)-N-(6′-(2-(hydroxymethyl)morpholino)-1′,2-dimethyl-2′-oxo-1′,2′-dihydro-[3,4′-bipyridin]-5-yl)isonicotinamide]

Structure (SMILES) | pIC50
Cc1ccc(NC(=O)c2ccc(C(O)CO)c(C(F)(F)F)c2)cc1-c1cc(N2CCOCC2)c(=O)n(C)c1 (stereo not drawn) [Example 460, 4-(1,2-dihydroxyethyl)-N-(4-methyl-3-(1-methyl-5-morpholino-6-oxo-1,6-dihydropyridin-3-yl)phenyl)-3-(trifluoromethyl)benzamide] | 7.80
Cn1c(N2C3CCC2COC3)cc(-c2cc(NC(=O)c3ccnc(C(C)(F)F)c3)cnc2Cl)cc1=O [Example 528, N-(6′-(3-oxa-8-azabicyclo[3.2.1]octan-8-yl)-2-chloro-1′-methyl-2′-oxo-1′,2′-dihydro-[3,4′-bipyridin]-5-yl)-2-(1,1-difluoroethyl)isonicotinamide] | 7.82

Same assay, conditions: read-out: b-Raf IC-50; AlphaScreen, 60 min pre-incubation, reaction 3 hours at room temperature

pIC50 | Structure (SMILES)
8.70 | Cc1ncc(NC(=O)c2ccnc(C(C)(F)F)c2)cc1-c1cnc(OC(C)C)c(N2CCOCC2)c1 [Example 952, 2-(1,1-difluoroethyl)-N-(6′-isopropoxy-2-methyl-5′-morpholino-[3,3′-bipyridin]-5-yl)isonicotinamide]
7.81 | Cc1ncc(NC(=O)c2cnnc(C(C)(C)C#N)c2)cc1-c1cnc(OCC(F)F)c(N2CCOCC2)c1 [Example 962, 6-(2-cyanopropan-2-yl)-N-(6′-(2,2-difluoroethoxy)-2-methyl-5′-morpholino-[3,3′-bipyridin]-5-yl)pyridazine-4-carboxamide]
9.24 | Cc1ccc(NC(=O)c2cccc(C(F)(F)F)c2)cc1-c1cc(NC(=O)C(C)O)nc(N2CCOCC2)c1 (stereo not drawn) [Example 1066, N-(3-(2-(2-hydroxypropanamido)-6-morpholinopyridin-4-yl)-4-methylphenyl)-3-(trifluoromethyl)benzamide]
8.18 | Cc1ncc(NC(=O)c2cc(C3CC3)on2)cc1-c1cc(N2CCOCC2)nc(N2CC(O)C2)c1 [Example 1093, 5-cyclopropyl-N-(2′-(3-hydroxyazetidin-1-yl)-2-methyl-6′-morpholino-[3,4′-bipyridin]-5-yl)isoxazole-3-carboxamide]
9.42 | Cc1ccc(NC(=O)c2cnnc(C3CC3)c2)cc1-c1cc(OCCO)nc(N2CCOCC2)c1 [Example 1162, 6-cyclopropyl-N-(3-(2-(2-hydroxyethoxy)-6-morpholinopyridin-4-yl)-4-methylphenyl)pyridazine-4-carboxamide]
9.05 | Cc1ccc(NC(=O)c2ccnc(C(C)(C)C#N)c2)cc1-c1nc(N2CCOCC2)c2sccc2n1 [Example 862, 2-(2-cyanopropan-2-yl)-N-(4-methyl-3-(4-morpholinothieno[3,2-d]pyrimidin-2-yl)phenyl)isonicotinamide]
8.79 | Cc1ccc(NC(=O)c2ccnc(C(C)(C)F)c2)cc1-c1cc(OCCO)nc(N2CCOCC2)c1 [Example 1158, 2-(2-fluoropropan-2-yl)-N-(3-(2-(2-hydroxyethoxy)-6-morpholinopyridin-4-yl)-4-methylphenyl)isonicotinamide]
7.87 | Cc1ncc(NC(=O)c2cnnc(C(F)(F)F)c2)cc1-c1cc(N2CCOCC2)nc(N2CC(C)(O)C2)c1 [Example 1107, N-(2′-(3-hydroxy-3-methylazetidin-1-yl)-2-methyl-6′-morpholino-[3,4′-bipyridin]-5-yl)-6-(trifluoromethyl)pyridazine-4-carboxamide]
8.27 | Cc1ccc(NC(=O)c2cnnc(C(F)(F)F)c2)cc1-c1cc(N2CCOCC2)nc(NCCO)c1F [Example 1007, N-(3-(3-fluoro-2-((2-hydroxyethyl)amino)-6-morpholinopyridin-4-yl)-4-methylphenyl)-6-(trifluoromethyl)pyridazine-4-carboxamide]

Same assay, conditions: read-out: b-Raf IC-50; Table 2; AlphaScreen, 3 hours reaction

pIC50 | Structure (SMILES)
8.22 | Cc1ncc(NC(=O)c2ccnc(C3(C#N)CC3)c2)cc1-c1cnc(Cl)c(N2CCOCC2)c1 [Example 288, N-(6′-chloro-2-methyl-5-morpholino-[3,3′-bipyridin]-5-yl)-2-(1-cyanocyclopropyl)isonicotinamide]
9.40 | CCOc1ncc(-c2cc(NC(=O)c3cccc(C(F)F)c3)ccc2C)cc1N1CCOCC1 [Example 231, 3-(difluoromethyl)-N-(3-(6-ethoxy-5-morpholinopyridin-3-yl)-4-methylphenyl)benzamide]
8.96 | Cc1ncc(NC(=O)c2cccc(C(F)(F)F)c2)cc1-c1cnc(OC2CC3(COC3)C2)c(N2CCOCC2)c1 [Example 322, N-(6′-(2-oxaspiro[3.3]heptan-6-yloxy)-2-methyl-5′-morpholino-[3,3′-bipyridin]-5-yl)-3-(trifluoromethyl)benzamide]
